# Reference: patent publication US20260248787A9, “MEDICAMENT FOR TREATING CANCER COMPRISING OPTICALLY ACTIVE AZABICYCLO RING DERIVATIVE” (Sumitomo Pharma Co., Ltd., priority 2023, published 2026)
# What was measured:
# [1] = human, in vivo
# Experimental: Arm A: Patients without azole antifungal treatment within 7 days (or 21 days for isavuconazole) of first dose of the present compound
# Arm B: Patients receiving posaconazole, voriconazole, or fluconazole antifungal prophylaxis at enrollment
# The safety of each dose level also was evaluated by the SRC, which was comprised of all investigators participating in the study and selected Sponsor study team members. The dose recommended by the BLRM method was treated as guidance and was integrated with a clinical assessment of toxicity information and review of other available data, including safety, PK, pharmacodynamic, and laboratory data.
# When the Dose Limiting Toxicity (DLT) evaluation for each cohort was completed, the SRC determined a next dose level based on the DLT and other available data, including safety, PK, pharmacodynamic, and laboratory data with reference to the Bayesian Logistic Regression Model (BLRM) recommendation.
# Dose escalation decisions were made after all patients in a dose level cohort have at least completed Cycle 1. All available data were presented along with the BLRM predictions for toxicity probabilities at the potential next dose levels. The SRC then determined the dose(s) for the next cohort(s).
# [2] = system: acute leukemia with MLLr or NPM1m; experiment: Phase 1/2 clinical study, clinical activity (responses by ELN 2017); format: in vivo, human
# MOLM-13 cells [3] = experiment: Tumor-bearing mice transplanted with MOLM-13 cells, with venetoclax and azacitidine, T/C (Example 10); format: in vivo; conditions: MOLM-13 tumor-bearing mice, oral, 15 days
# Experimental: The present compound was weighed and dissolved in 0.5 w/v % Methyl Cellulose 400 solution to give the compound concentrations of 20 mg/mL and 10 mg/mL. Venetoclax was weighed and suspended in a mixed solution of Phosal 50 propylene glycol (60%)/Polyethylene glycol-400 (30%)/Ethanol (10%) to give the compound concentration of 5 mg/mL. Azacitidine was weighed and dissolved in saline to give the compound concentration of 0.3 mg/mL.
# MOLM-13 cells (DSMZ) were intradermally implanted around the ventral region of 5-week old NOD. CB17-PrkdcSCID/J mice (female, The Jackson Laboratory Japan) at 1×10^6 cells/mouse. […] The tumor volume was measured over time from the start of the administration, and the reduction effect of the tumor volume due to the compound-administration was evaluated. The tumor volume was calculated by the following formula using short axis and long axis of the tumor measured with an electronic caliper (Mitutoyo).
# (§1) The control administration group in which only the solvent was administered and the test substance administration group were compared, and T/C was calculated using the following formula to evaluate the antitumor effect.
# MOLM-13 cells [4] = experiment: Tumor-bearing mice transplanted with MOLM-13 cells, with gilteritinib, T/C (Example 12); format: in vivo; conditions: MOLM-13 tumor-bearing mice, oral, 18 days
# Experimental: The antitumor effects of the present compound and gilteritinib were evaluated. The present compound was weighed and dissolved in 0.5 w/v % Methyl Cellulose 400 solution to give the compound concentrations of 20 mg/mL and 10 mg/mL. Gilteritinib was weighed and suspended in 0.5 w/v % Methyl Cellulose 400 solution to give the compound concentrations of 3 mg/mL.
# MOLM-13 cells (DSMZ) were intradermally implanted around the ventral region of 5-week old NOD. CB17-PrkdcSCID/J mice (female, The Jackson Laboratory Japan) at 1×10^6 cells/mouse. After confirming the engraftment of MOLM-13 cells 6 days after the transplantation, the present compound was orally administered to the mice at a dose of 100 mg/kg or 200 mg/kg, and gilteritinib was orally administered to the mice at a dose of 30 mg/kg, once a day for 18 days. The tumor volume was measured over time from the start of the administration, and the reduction effect of the tumor volume due to the compound-administration was evaluated. The tumor volume was calculated by the following formula using short axis and long axis of the tumor measured with an electronic caliper (Mitutoyo).
# as §1
# [5] = MLLr + NPM1m, ≥140 mg BID, n=21
smiles,measurement,setting,value
"C=C1C[C@@H]2CC[C@H]1[C@@H](C(=O)N1CCC3(CC1)CN(c1ncncc1Oc1ccc(F)cc1C(=O)N(C(C)C)C(C)C)C3)N2 [the present compound, 5-fluoro-2-[(4-{7-[(1S,3S,4R)-5-methylidene-2-azabicyclo[2.2.2]octane-3-carbonyl]-2,7-diazaspiro[3.5]nonan-2-yl}pyrimidin-5-yl)oxy]-N,N-di(propan-2-yl)benzamide]","SAE COVID-19, CTCAE Grade",[1],3
same,responders per ELN 2017,"[2]; 43 enrolled, MLLr or NPM1m, 19 evaluable",5 responders
same,objective response rate (ORR) by ELN 2017 (CR+CRi+MLFS),"[2]; MLLr (20 AML, 2 ALL), ≥140 mg BID, no prior menin inhibitor (13/22)",59.1%
same,CR + CRh (ELN 2017),[2]; [5],5 (24%) n (%)
same,Composite CR (ELN 2017),[2]; [5],7 (33%) n (%)
same,Objective Response Rate (ELN 2017),[2]; [5],12 (57%) n (%)
same,CR+CRh,"[2]; MLLr or NPM1m, all dose levels 40-300 mg BID, prior menin inhibitor naïve, finished 1 cycle (6/38)",16%
same,ORR,"[2]; MLLr or NPM1m, all dose levels 40-300 mg BID, prior menin inhibitor naïve, finished 1 cycle (12/38)",32%
same,CR+CRh rate,"[2]; MLLr or NPM1m, ≥140 mg BID, prior menin inhibitor naïve, finished 1 cycle (5/22)",23%
same,ORR (CR+CRi+MLFS),"[2]; MLLr or NPM1m, ≥140 mg BID, prior menin inhibitor naïve, finished 1 cycle (10/22)",45%
same,CR+CRh,"[2]; MLLr, ≥140 mg BID (2/12 patients)",17%
same,Objective Response Rate (ORR; CR+CRh+CRi+MLFS),"[2]; MLLr, ≥140 mg BID (8/12 patients)",67%
same,CR + CRh (ELN 2017),"[2]; MLLr, ≥140 mg BID, n=12",2 (17%) n (%)
same,Composite CR (ELN 2017),"[2]; MLLr, ≥140 mg BID, n=12",5 (42%) n (%)
same,Objective Response Rate (ELN 2017),"[2]; MLLr, ≥140 mg BID, n=12",8 (67%) n (%)
same,CR+CRh,"[2]; MLLr, ≥140 mg BID, no prior menin inhibitor (5/22)",22.7%
same,CR+CRh,"[2]; NPM1m AML, ≥140 mg BID, no prior menin inhibitor (3/13)",23.1%
same,ORR,"[2]; NPM1m AML, ≥140 mg BID, no prior menin inhibitor (7/13)",53.8%
same,CR+CRh,"[2]; NPM1m, ≥140 mg BID (3/9 patients)",33%
same,ORR,"[2]; NPM1m, ≥140 mg BID (4/9 patients)",44%
same,CR + CRh (ELN 2017),"[2]; NPM1m, ≥140 mg BID, n=9",3 (33%) n (%)
same,Composite CR (ELN 2017),"[2]; NPM1m, ≥140 mg BID, n=9",3 (33%) n (%)
same,Objective Response Rate (ELN 2017),"[2]; NPM1m, ≥140 mg BID, n=9",4 (44%) n (%)
same,response achieved (ELN 2017),"[2]; a patient with MLLr, 120 mg BID Arm A",MLFS
same,additional patients with MLLr with response per ELN2017 (CRh/CRi and MLFS),[2]; lower dose levels,Two
same,median time to CR+CRh,"[2]; overall, ≥140 mg BID",1.0 months
same,median time to objective response,"[2]; overall, ≥140 mg BID",1.0 months
same,Bone marrow blast reduction,[2]; patients with MLLr or NPM1m (FIG. 8),observed
same,T/C,MOLM-13 cells [3]; 100 mg/kg,22.6%
same,T/C,MOLM-13 cells [3]; 200 mg/kg,8.4%
same,T/C,MOLM-13 cells [4]; 100 mg/kg,43.8%
same,T/C,MOLM-13 cells [4]; 200 mg/kg,1.8%
